Measured values: PubChem BioAssay (NCI)
Several values for one entry are separate records, joined by “and”; a condition that tells them apart may be missing. Equal entries are not always repeated.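 48-hour exposure; five concentrations; linearly interpolated endpoints. Abbreviation: GI50, concentration required for 50% inhibition of growth. The concentration for full growth arrest is given as TGI.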

How the values were obtained:
Assay in all cases: DTP human tumour cell line panel, 48 h
MALME-3M melanoma = system: MALME-3M melanoma
786-0 renal = system: 786-0 renal
SNB-19 CNS = system: SNB-19 CNS
RPMI-8226 leukemia = system: RPMI-8226 leukemia
UACC-62 melanoma = system: UACC-62 melanoma
HT29 colon = system: HT29 colon
SR leukemia = system: SR leukemia
HCT-116 colon = system: HCT-116 colon
BT-549 breast = system: BT-549 breast
PC-3 prostate = system: PC-3 prostate

Structure (SMILES) | TGI (MALME-3M melanoma) | TGI (786-0 renal) | TGI (SNB-19 CNS) | TGI (RPMI-8226 leukemia) [µM] | TGI (UACC-62 melanoma) [µM] | TGI (HT29 colon) [µM] | TGI (SR leukemia) [µM] | TGI (HCT-116 colon) [µM] | TGI (BT-549 breast) [µM] | TGI (PC-3 prostate) [µM] | GI50 (MALME-3M melanoma) [µM] | GI50 (786-0 renal) [µM] | GI50 (SNB-19 CNS) [µM] | GI50 (RPMI-8226 leukemia) [µM] | GI50 (UACC-62 melanoma) [µM] | GI50 (HT29 colon) [µM] | GI50 (SR leukemia) [µM] | GI50 (HCT-116 colon) [µM] | GI50 (BT-549 breast) [µM] | GI50 (PC-3 prostate) [µM]
CC(C)(O)[C@@H]1CC[C@@]2(C)CCC[C@H](O)[C@H]2C1 | > 100 µM | > 100 µM | > 100 µM | > 100 | > 100 | > 100 | > 100 | > 100 |  |  |  |  |  |  |  |  |  |  |  | 
COc1ccc(OC)c(NCC#N)c1 | > 100 µM | > 100 µM | > 100 µM | > 100 | > 100 | > 100 |  | > 100 |  |  |  |  |  |  |  |  |  |  |  | 
CSc1nc(SC)c2c(C(N)=S)[nH]nc2n1 | 88 µM | > 100 µM | 90 µM | 67.8 | 55.6 | > 100 | 87.1 |  |  |  |  |  |  |  |  |  |  |  |  | 
CCn1c2ccc(C(=O)CCCN(C)C)cc2c2cc(C(=O)CCCN(C)C)ccc21 | 11 µM | 2.82 µM | 9.31 µM |  | 20.8 | 4.24 |  | 11.6 | 12.4 | 5.88 |  |  |  |  |  |  |  |  |  | 
COc1ccc2nc(NCN3C(=O)c4ccccc4C3=O)sc2c1 | > 100 µM | > 100 µM | > 100 µM | > 100 | > 100 | > 100 |  | > 100 | > 100 | > 100 |  |  |  |  |  |  |  |  |  | 
O=[P+](O)c1cc2ccccc2c2ccccc12 |  | > 100 µM | > 100 µM | > 100 | > 100 | > 100 |  | > 100 |  |  |  |  |  |  |  |  |  |  |  | 
CC(=O)OC(C)(C)/C=C/C(=O)[C@](C)(O)[C@H]1[C@H](O)C[C@@]2(C)[C@@H]3CC=C4[C@@H](C[C@H](O)C(=O)C4(C)C)[C@]3(CO)C(=O)C[C@]12C | 0.936 µM and 4.69 µM | 0.889 µM and 0.475 µM | 0.58 µM and 0.559 µM | 2.28 | 15.8 |  | 29.4 | 10 |  |  | 0.0838 | 0.2 | 0.213 | 0.356 | 0.127 | 0.276 | 0.462 | 0.236 |  | 
CC1=C(C(=O)Nc2ccc([N+](=O)[O-])cc2)C(c2ccccc2O)C(C(=O)Nc2ccc([N+](=O)[O-])cc2)=C(C)N1 | 49.4 µM | 64.8 µM | > 100 µM | 53.4 |  | 57.8 |  |  |  |  |  |  |  |  |  |  |  |  |  | 
CN1CCN(C(=O)c2c(NC(=O)NS(=O)(=O)c3ccccc3)sc3c2CCCCC3)CC1 |  | 53 µM |  | 64.8 | 60 |  | > 100 |  | 98.6 | > 100 |  | 19.2 |  | 21.8 | 23 |  | 27.5 |  | 26.3 | 30.6
Cc1ccc(-c2cc(=O)c3cc(C)c(C)c(C(=O)O)c3o2)cc1 | > 100 µM | > 100 µM | > 100 µM | > 100 | > 100 | > 100 |  | > 100 |  |  |  |  |  |  |  |  |  |  |  | 
O=CC(Br)C(Br)c1ccccc1 (centres undefined) |  | 6.46 µM | 26.2 µM | 5.39 | 3.74 | 3.19 | 2.81 | 0.523 | 8.47 | 6.75 |  | 2.5 | 12.8 | 2.14 | 1.79 | 1.71 | 0.445 | 0.225 | 2.77 | 2.39
NC(=O)C(=Cc1ccc(CP(=O)(O)O)cc1)C(N)=O | > 100 µM | > 100 µM | > 100 µM | > 100 | > 100 | > 100 |  | > 100 |  |  |  |  |  |  |  |  |  |  |  | 
O=C1C2CC=CCC2C(=O)C12CCc1ccccc12 (centres undefined) | > 100 µM | > 100 µM |  |  | > 100 | > 100 |  |  |  |  |  |  |  |  |  |  |  |  |  | 
CC1(C)N=C(N)N=C(N)N1c1ccc(CCc2ccc(Cl)cc2S(=O)(=O)F)c(Cl)c1 | 60.3 µM | > 100 µM | > 100 µM | 38.5 | 31.5 |  | 76.5 | 16.2 |  | > 100 | 14.7 | 5.21 | 7.95 | 10.2 | 4.57 |  | 6.05 | 2.56 |  | 6.62
CN(C(=O)C12C3(C(=O)C(C)(C)C)C4C5(C#N)C3C1(C(=O)C(C)(C)C)C5C42C(=O)C(C)(C)C)C(C)(C)C (centres undefined) | > 50 µM | > 50 µM | > 50 µM |  | > 50 | > 50 | > 50 | > 50 |  |  |  |  |  |  |  |  |  |  |  | 
COC1=C2C[C@H](O)C(C)C[C@@]2(OC)OC1=O (some centres undefined) | > 100 µM | > 100 µM | > 100 µM | > 100 | > 100 | > 100 |  | > 100 |  |  |  |  |  |  |  |  |  |  |  | 
O=c1nc(NC(c2ccccc2)(c2ccccc2)c2ccccc2)ccn1CCO | > 100 µM | > 100 µM | > 100 µM | > 100 |  | > 100 | > 100 | > 100 |  |  |  |  |  |  |  |  |  |  |  | 
CCCCCCCC(=O)OCC1OC(n2cc(F)c(=O)[nH]c2=O)C(NC(=O)OCc2ccccc2)C(O)C1O (centres undefined) | > 100 µM | > 100 µM | > 100 µM | 91.7 | > 100 | > 100 | > 100 | > 100 |  |  |  |  |  |  |  |  |  |  |  | 
O=C1[C@H]2ON(c3ccccc3)C(c3ccccc3F)[C@H]2C(=O)N1c1ccc(Cc2ccc(N3C(=O)[C@@H]4ON(c5ccccc5)C(c5ccccc5F)[C@@H]4C3=O)cc2)cc1 (some centres undefined) | > 100 µM | > 100 µM |  | > 100 | > 100 | > 100 |  |  |  |  |  |  |  |  |  |  |  |  |  | 
CCOc1ccccc1N1C(=O)C(=O)C(c2nc3ccccc3o2)/C(=N\N)C1=O (centres undefined) | > 100 µM | > 100 µM | > 100 µM | > 100 | > 100 | > 100 |  | > 100 |  |  |  |  |  |  |  |  |  |  |  | 
COC(=O)c1ccc(NC(=O)c2cc(OC)c(OC)c(OC)c2)cc1 | > 100 µM | > 100 µM | > 100 µM |  | > 100 | > 100 | > 72.8 | > 100 |  |  |  |  |  |  |  |  |  |  |  | 
CCCCOC(=O)c1ccc(NC(=O)CCl)cc1 | 3.68 µM | 3.74 µM | 3.22 µM |  | 13.3 | 3.48 | 3.85 | 2.86 | 7.7 | 12.4 | 1.76 | 2.04 | 1.62 |  | 2.74 | 1.9 | 1.67 | 1.29 | 2.2 | 3.24
CCOC(=O)[C@H]1CSC[C@@H](C(=O)OC)N1 | > 100 µM | > 100 µM | > 100 µM | > 100 | > 100 | > 100 | > 100 | > 100 |  |  |  |  |  |  |  |  |  |  |  | 
C/C(CC(=O)Nc1ccc(Cl)cc1)=N\NC(=O)C[n+]1ccccc1 | > 100 µM | > 100 µM |  | > 100 | > 100 | > 100 |  | > 100 |  |  |  |  |  |  |  |  |  |  |  | 
